Columns and labels:
Format in all cases: in vivo
Glycine max (GLXMA) = assay: greenhouse test, preemergence treatment, soybean; conditions: 100 = no emergence or complete destruction, 0 = no damage
From the text: (§1) It was possible to show the herbicidal action of the saccharin-5-carbonyl derivatives of the formula I by means of greenhouse tests: The cultivation containers used were plastic pots containing loamy sand with approximately 3.0% humus as a substrate. The seeds of the test plants were sown separately according to species. In the case of preemergence treatment, the active compounds suspended or emulsified in water were applied directly after sowing by means of finely dispersing nozzles. The containers were lightly watered in order to promote germination and growth, and then covered with transparent plastic hoods until the plants had taken root. This covering causes uniform germination of the test plants if this is not adversely affected by the active compounds. The application rate for preemergence treatment was 0.125 or 0.0625 kg/ha of a.s. The plants were kept species-specifically at temperatures of 10-25° C. or 20-35° C. The test period extended over 2 to 4 weeks. During this time, the plants were tended, and their reaction to the individual treatments was assessed. Assessment was carried out on a scale from 0 to 100. In this case, 100 means no emergence of the plants or complete destruction at least of the above-ground parts and 0 means no damage or a normal course of growth. The plants used in the greenhouse tests were made up of the following species: [table]

[1] = system: Chenopodium album (CHEAL); assay: greenhouse test, preemergence treatment, lambsquarter; conditions: 100 = no emergence or complete destruction, 0 = no damage
From the text: as §1

[2] = system: digitaria sanguinalis (DIGSA); assay: greenhouse test, preemergence treatment, large crabgrass; conditions: 100 = no emergence or complete destruction, 0 = no damage
From the text: as §1

[3] = system: Echinochloa crus galli (ECHCG); assay: greenhouse test, preemergence treatment, common barnyard grass; conditions: 100 = no emergence or complete destruction, 0 = no damage
From the text: as §1

Setaria viridis (SETVI) = assay: greenhouse test, preemergence treatment, green foxtail; conditions: 100 = no emergence or complete destruction, 0 = no damage
From the text: as §1

[4] = system: weed grasses and broad-leaved plants; assay: greenhouse test, preemergence treatment, overall statement; conditions: 0.125 and 0.0625 kg/ha a.s.
From the text: as §1, with “[table]” left out

Cc1c(C(=O)C2=C(O)C3CCC(C3)C2=O)ccc2c1C(=O)N(C)S2(=O)=O (centres unmarked) [Compound 1.1]
damage assessment on a scale from 0 to 100 (GLXMA) (Glycine max (GLXMA); 0.0625 kg/ha of a.s.): 0 | damage assessment on a scale from 0 to 100 (GLXMA) (Glycine max (GLXMA); 0.125 kg/ha of a.s.): 0 | damage assessment on a scale from 0 to 100 (CHEAL) ([1]; 0.0625 kg/ha of a.s.): 98 | damage assessment on a scale from 0 to 100 (CHEAL) ([1]; 0.125 kg/ha of a.s.): 98 | damage assessment on a scale from 0 to 100 (DIGSA) ([2]; 0.0625 kg/ha of a.s.): 98 | damage assessment on a scale from 0 to 100 (DIGSA) ([2]; 0.125 kg/ha of a.s.): 98 | damage assessment on a scale from 0 to 100 (ECHCG) ([3]; 0.0625 kg/ha of a.s.): 98 | damage assessment on a scale from 0 to 100 (ECHCG) ([3]; 0.125 kg/ha of a.s.): 98 | damage assessment on a scale from 0 to 100 (SETVI) (Setaria viridis (SETVI); 0.0625 kg/ha of a.s.): 98 | damage assessment on a scale from 0 to 100 (SETVI) (Setaria viridis (SETVI); 0.125 kg/ha of a.s.): 100 | control of weed grasses and broad-leaved plants [4]: very well controlled

Source: patent publication US6410485B1, “Saccharin-5-carbonyl derivatives with herbicidal effect” (BASF Aktiengesellschaft, priority 1999, dated 2002)
